The target in one assay is Mu-type opioid receptor (Cavia porcellus, UniProt P97266). Description: Displacement of [3H]DAMGO from Opioid receptor mu 1 of guinea pig brain membranes. For orientation: Loss of bound radioactivity is the signal in a displacement assay; it reports binding, not function.
Assay [1] can be described thus: Displacement of [3H]naltrindole from Opioid receptor delta 1 of guinea pig brain membranes.
Assay [2] addresses Kappa-type opioid receptor (Cavia porcellus, UniProt P41144). Description: Displacement of [3H]U-69593 from Opioid receptor kappa 1 of guinea pig brain membranes.

The results in this text go back to ChEMBL document CHEMBL1134211, “8-Carboxamidocyclazocine analogues: redefining the structure-activity relationships of 2,6-methano-3-benzazocines” (Bioorg Med Chem Lett, 2001).

SMILES strings stand for the structures.

Mu-type opioid receptor, sequence (P97266 whole entry): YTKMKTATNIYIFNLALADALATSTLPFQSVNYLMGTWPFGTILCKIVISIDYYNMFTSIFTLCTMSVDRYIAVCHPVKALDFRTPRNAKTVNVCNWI
Kappa-type opioid receptor, sequence (P41144 whole entry): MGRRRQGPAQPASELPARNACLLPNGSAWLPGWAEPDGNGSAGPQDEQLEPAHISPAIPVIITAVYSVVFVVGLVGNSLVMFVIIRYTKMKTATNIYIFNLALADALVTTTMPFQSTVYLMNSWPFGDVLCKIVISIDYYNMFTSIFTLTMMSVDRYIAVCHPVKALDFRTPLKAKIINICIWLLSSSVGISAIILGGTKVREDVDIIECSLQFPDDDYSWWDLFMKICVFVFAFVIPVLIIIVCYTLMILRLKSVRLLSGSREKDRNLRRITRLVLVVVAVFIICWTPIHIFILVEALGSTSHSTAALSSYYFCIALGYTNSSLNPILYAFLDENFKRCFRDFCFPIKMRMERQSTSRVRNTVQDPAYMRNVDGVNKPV

As to `C[C@H]1C2Cc3ccc(C#N)cc3[C@@]1(C)CCN2CC1CC1` (mixture of isomers), at Mu-type opioid receptor, the Ki (as a rule, a dissociation constant, usually derived from enzyme kinetics or from competition with a known ligand) stood at 540 nM. In turn, `C[C@@H]1[C@@H]2Cc3ccc(O)cc3[C@@]1(C)CN2CC1CC1` registered a Ki in assay [1] of 1100 nM. Turning to `COC(=O)c1ccc2c(c1)[C@@]1(C)CCN(CC3CC3)C(C2)[C@@H]1C` (mixture of isomers), on Mu-type opioid receptor, the Ki was found to be 45 nM. That is a double-digit nanomolar value. For the compound `C[C@H]1[C@H]2Cc3ccc(O)cc3[C@@]1(C)CCN2CC1CC1` (racemic), the affinity in assay [1] corresponds to a Ki of 1.1 nM.

In the case of `C[C@H]1C2Cc3ccc(C(=O)O)cc3[C@@]1(C)CCN2CC1CC1` (mixture of isomers), the values for the Ki (on Mu-type opioid receptor; in assay [2]) were 58 nM and 31 nM, respectively. For `C[C@H]1C2Cc3ccc(C(=O)Nc4ccccc4)cc3[C@@]1(C)CCN2CC1CC1` (mixture of isomers) the same measures were 740 nM and 460 nM. In the case of `CNC(=O)c1ccc2c(c1)[C@@]1(C)CCN(CC3CC3)C(C2)[C@@H]1C` (mixture of isomers), the results for the Ki (on Mu-type opioid receptor; in assay [2]) were 24 nM and 2.6 nM, respectively. For `C[C@H]1C2Cc3ccc(C(=O)N(C)C)cc3[C@@]1(C)CCN2CC1CC1` (mixture of isomers) the same measures were 3000 nM and 2500 nM.

On to `CC[C@@]12CCN(CC3CC3)C(C(=O)c3ccc(C(N)=O)cc31)[C@@H]2C` (mixture of isomers), for which the Ki at Mu-type opioid receptor is 1.2 nM; in assay [2] it was 0.7 nM.
